Earlier results, collected in US11980189B2, “Agricultural formulations, uses thereof and processes for preparation thereof” (Valent U.S.A. LLC, priority 2020, dated 2024).

Q: With COCC(=O)N(c1c(C)cccc1C)C(C)C(=O)OC (stereo not shown) [metalaxyl, Metalaxyl] as the molecule, how does the partial water solubility read?
A: 8,400 parts per million
